“And” between values parts separate entries of the source, which are not always exact repeats. Identical values can stand only once. Records with an inconclusive call do not appear.
System: BDF1 mice, s.c. Lewis lung carcinoma, T/C %
Assay: NCI In Vivo Anticancer Drug Screen. Data for tumor model Lewis Lung Carcinoma (subcutaneous) in B6D2F1 (BDF1) mice
Outline: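 First, mice carry a transplantable tumor. Next, groups receive either compound or vehicle. Finally, survival or tumor dimensions in the dosed animals are divided by the corresponding control figure.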

SMILES: COC(=O)[C@@H]1[C@@H](O)[C@H](OC(=O)c2cc(OC)c(OC)c(OC)c2)C[C@@H]2CN3CCc4c([nH]c5ccccc45)[C@H]3C[C@@H]21
- T/C (endpoint: median survival time, dose: 1.25 mg/kg/injection, schedule: Q01DX009 (ip), vehicle: Klucel (hydroxypropylcellulose) (HPC), higher = longer survival): 108 % of control
- T/C (endpoint: median survival time, dose: 2.5 mg/kg/injection, schedule: Q01DX009 (ip), vehicle: Klucel (hydroxypropylcellulose) (HPC), higher = longer survival): 122 % of control
- T/C (endpoint: median survival time, dose: 5.0 mg/kg/injection, schedule: Q01DX009 (ip), vehicle: Klucel (hydroxypropylcellulose) (HPC), higher = longer survival): 88 % of control

SMILES: CC1(C)C(CC(=O)O)CC1C(=O)O (stereo not given)
- T/C (endpoint: mean tumor weight, dose: 166.0 mg/kg/injection, schedule: Q01DX011 (ip), vehicle: other, higher = larger tumour): 78 % of control

SMILES: O=NN(CCF)C(=O)NC1CSCSC1
- T/C (endpoint: median tumor weight (est.), dose: 14.0 mg/kg/injection, schedule: Q01DX001 (ip), vehicle: saline with Tween-80, higher = larger tumour): 61 % of control
- T/C (endpoint: median tumor weight (est.), dose: 27.0 mg/kg/injection, schedule: Q01DX001 (ip), vehicle: saline with Tween-80, higher = larger tumour): 45 % of control
- T/C (endpoint: median tumor weight (est.), dose: 41.0 mg/kg/injection, schedule: Q01DX001 (ip), vehicle: saline with Tween-80, higher = larger tumour): 8 % of control

SMILES: O=c1c(O)c(-c2ccccc2)oc2ccccc12
- T/C (endpoint: mean tumor weight, dose: 0.19 mg/kg/injection, schedule: Q01DX011 (ip), vehicle: saline, higher = larger tumour): 79 % of control
- T/C (endpoint: mean tumor weight, dose: 0.39 mg/kg/injection, schedule: Q01DX011 (ip), vehicle: saline, higher = larger tumour): 50 % of control
- T/C (endpoint: mean tumor weight, dose: 0.78 mg/kg/injection, schedule: Q01DX011 (ip), vehicle: saline, higher = larger tumour): 105 % of control
- T/C (endpoint: mean tumor weight, dose: 1.56 mg/kg/injection, schedule: Q01DX011 (ip), vehicle: saline, higher = larger tumour): 52 % of control and 58 % of control
- T/C (endpoint: mean tumor weight, dose: 3.13 mg/kg/injection, schedule: Q01DX011 (ip), vehicle: saline, higher = larger tumour): 78 % of control
- T/C (endpoint: mean tumor weight, dose: 6.25 mg/kg/injection, schedule: Q01DX011 (ip), vehicle: saline, higher = larger tumour): 97 % of control
- T/C (endpoint: mean tumor weight, dose: 12.5 mg/kg/injection, schedule: Q01DX010 (ip), vehicle: saline, higher = larger tumour): 67 % of control
- T/C (endpoint: mean tumor weight, dose: 12.5 mg/kg/injection, schedule: Q01DX011 (ip), vehicle: saline, higher = larger tumour): 103 % of control
- T/C (endpoint: mean tumor weight, dose: 25.0 mg/kg/injection, schedule: Q01DX010 (ip), vehicle: saline, higher = larger tumour): 82 % of control
- T/C (endpoint: mean tumor weight, dose: 50.0 mg/kg/injection, schedule: Q01DX010 (ip), vehicle: saline, higher = larger tumour): 104 % of control
- T/C (endpoint: mean tumor weight, dose: 100.0 mg/kg/injection, schedule: Q01DX010 (ip), vehicle: saline, higher = larger tumour): 83 % of control

SMILES: COc1cc2cc(c1Cl)N(C)C(=O)C[C@H](OC(=O)[C@H](C)N(C)C(C)=O)[C@]1(C)O[C@H]1[C@H](C)[C@@H]1C[C@@](O)(NC(=O)O1)[C@H](OC)C=C/C=C(\C)C2
- T/C (endpoint: median survival time, dose: 0.04 mg/kg/injection, schedule: Q04DX003 (ip), vehicle: saline, higher = longer survival): 112 % of control
- T/C (endpoint: median survival time, dose: 0.08 mg/kg/injection, schedule: Q04DX003 (ip), vehicle: saline, higher = longer survival): 102 % of control
- T/C (endpoint: median survival time, dose: 0.15 mg/kg/injection, schedule: Q04DX003 (ip), vehicle: saline, higher = longer survival): 110 % of control
- T/C (endpoint: median survival time, dose: 0.6 mg/kg/injection, schedule: Q04DX003 (ip), vehicle: saline, higher = longer survival): 96 % of control

SMILES: Cc1cc(N(CCCl)CCCl)ccc1C=Nc1cccnc1
- T/C (endpoint: median survival time, dose: 25.0 mg/kg/injection, schedule: Q01DX009 (ip), vehicle: Klucel (hydroxypropylcellulose) (HPC), higher = longer survival): 104 % of control
- T/C (endpoint: median survival time, dose: 25.0 mg/kg/injection, schedule: Q01DX009 (ip), vehicle: saline with Tween-80, higher = longer survival): 95 % of control
- T/C (endpoint: median survival time, dose: 50.0 mg/kg/injection, schedule: Q01DX009 (ip), vehicle: Klucel (hydroxypropylcellulose) (HPC), higher = longer survival): 96 % of control
- T/C (endpoint: median survival time, dose: 50.0 mg/kg/injection, schedule: Q01DX009 (ip), vehicle: saline with Tween-80, higher = longer survival): 92 % of control
- T/C (endpoint: median survival time, dose: 100.0 mg/kg/injection, schedule: Q01DX009 (ip), vehicle: Klucel (hydroxypropylcellulose) (HPC), higher = longer survival): 103 % of control
- T/C (endpoint: median survival time, dose: 100.0 mg/kg/injection, schedule: Q01DX009 (ip), vehicle: saline with Tween-80, higher = longer survival): 93 % of control
- T/C (endpoint: median survival time, dose: 200.0 mg/kg/injection, schedule: Q01DX009 (ip), vehicle: Klucel (hydroxypropylcellulose) (HPC), higher = longer survival): 98 % of control

SMILES: NC1=NC(=S)C2N=C(N=Nc3ccc(C(=O)NC(CCC(=O)O)C(=O)O)cc3)N=C2N1 (stereo not given)
- T/C (endpoint: median survival time, dose: 0.2 mg/kg/injection, schedule: Q01DX009 (ip), vehicle: Klucel (hydroxypropylcellulose) (HPC), higher = longer survival): 97 % of control
- T/C (endpoint: median survival time, dose: 0.4 mg/kg/injection, schedule: Q01DX009 (ip), vehicle: Klucel (hydroxypropylcellulose) (HPC), higher = longer survival): 93 % of control
- T/C (endpoint: median survival time, dose: 0.78 mg/kg/injection, schedule: Q01DX009 (ip), vehicle: Klucel (hydroxypropylcellulose) (HPC), higher = longer survival): 110 % of control

SMILES: CNC1C(O)C(NC)C2OC3(O)C(=O)CC(C)OC3OC2C1O (stereo not given)
- T/C (endpoint: median survival time, dose: 25.0 mg/kg/injection, schedule: Q01DX009 (ip), vehicle: saline, higher = longer survival): 111 % of control
- T/C (endpoint: median survival time, dose: 50.0 mg/kg/injection, schedule: Q01DX009 (ip), vehicle: saline, higher = longer survival): 96 % of control
- T/C (endpoint: median survival time, dose: 100.0 mg/kg/injection, schedule: Q01DX009 (ip), vehicle: saline, higher = longer survival): 110 % of control
